For experiment [1] the following is noted: cited from earlier work.
Experiment [2] relates to DOP receptor dephosphorylation at T361 and S363. The experiment can be described thus: DOP receptor dephosphorylation after DPDPE washout with phosphatase inhibitors (Western blot, HEK293 cells). Particulars: HEK293 HA-hDOP; inhibitor preincubated 30 min, 1 µM DPDPE 10 min, citrate washout, 0-40 min. In kind it is cell-based, human.

As to `CCN(CC)C(=O)c1ccc(C2=CC3(CCNCC3)Oc3cccc(O)c32)cc1` [ADL5859, N,N-diethyl-4-(5-hydroxyspiro[chromene-2,4′-piperidine]-4-yl)benzamide], the “Effective dose in most behavior assays” value in experiment [1] is 10 mg/kg. For `CCN(CC)C(=O)c1ccc(C(=C2CCNCC2)c2ccccc2)cc1` [AR-M1000390, N,N-Diethyl-4-(phenylpiperidin-4-ylidenemethyl)benzamide], the “Effective dose in most behavior assays” value in experiment [1] is recorded as 10 mg/kg. In the case of `COC[C@@H]([C@H](O)[C@H](O)C(=O)NCC[C@H](C)c1nc(/C=C/C[C@@H]2O[C@]3(C[C@@H](O)[C@@H]2C)O[C@H]([C@H](C[C@H](O)[C@H](C)[C@H](O)[C@H](C)/C=C(C)/C(C)=C/C=C/C(C)=C\C#N)OC)[C@H](OP(=O)(O)O)C3(C)C)co1)N(C)C` [calyculin A], the “Effect on DOP receptor dephosphorylation at T361 and S363” value in experiment [2] is on record as “inhibited in a concentration-dependent manner only by calyculin A”.

These data come from article PMC7244497 (Scientific Reports, 2020).
